Each structure is given as a SMILES string. The source made the active and inactive calls. The rule behind the calls is not given here.

For experiment [1], the system named is NCI-H1975. The experiment is described as follows: Growth inhibition of human NCI-H1975 cells at 0.041 to 10 ug/ml after 72 hrs by MTT assay. The experiment is classed as functional, cell-based.
The test system of experiment [2] is MDA-MB-468. In words: Growth inhibition of human MDA-MB-468 cells overexpressing FAS gene after 72 hrs by MTT assay. Particulars: MDA-MB-468, 72 h. It is filed as functional, cell-based.
Experiment [3] relates to SW480. In words: Growth inhibition of human SW480 cells overexpressing FAS gene after 72 hrs by MTT assay. It is filed as functional, cell-based. The settings on record: SW480, 72 h.
For experiment [4], the target named is Fatty acid synthase (Gallus gallus, UniProt P12276). In words: Inhibition of chicken FAS by spectrophotometric analysis.
Fatty acid synthase, sequence (P12276 whole entry): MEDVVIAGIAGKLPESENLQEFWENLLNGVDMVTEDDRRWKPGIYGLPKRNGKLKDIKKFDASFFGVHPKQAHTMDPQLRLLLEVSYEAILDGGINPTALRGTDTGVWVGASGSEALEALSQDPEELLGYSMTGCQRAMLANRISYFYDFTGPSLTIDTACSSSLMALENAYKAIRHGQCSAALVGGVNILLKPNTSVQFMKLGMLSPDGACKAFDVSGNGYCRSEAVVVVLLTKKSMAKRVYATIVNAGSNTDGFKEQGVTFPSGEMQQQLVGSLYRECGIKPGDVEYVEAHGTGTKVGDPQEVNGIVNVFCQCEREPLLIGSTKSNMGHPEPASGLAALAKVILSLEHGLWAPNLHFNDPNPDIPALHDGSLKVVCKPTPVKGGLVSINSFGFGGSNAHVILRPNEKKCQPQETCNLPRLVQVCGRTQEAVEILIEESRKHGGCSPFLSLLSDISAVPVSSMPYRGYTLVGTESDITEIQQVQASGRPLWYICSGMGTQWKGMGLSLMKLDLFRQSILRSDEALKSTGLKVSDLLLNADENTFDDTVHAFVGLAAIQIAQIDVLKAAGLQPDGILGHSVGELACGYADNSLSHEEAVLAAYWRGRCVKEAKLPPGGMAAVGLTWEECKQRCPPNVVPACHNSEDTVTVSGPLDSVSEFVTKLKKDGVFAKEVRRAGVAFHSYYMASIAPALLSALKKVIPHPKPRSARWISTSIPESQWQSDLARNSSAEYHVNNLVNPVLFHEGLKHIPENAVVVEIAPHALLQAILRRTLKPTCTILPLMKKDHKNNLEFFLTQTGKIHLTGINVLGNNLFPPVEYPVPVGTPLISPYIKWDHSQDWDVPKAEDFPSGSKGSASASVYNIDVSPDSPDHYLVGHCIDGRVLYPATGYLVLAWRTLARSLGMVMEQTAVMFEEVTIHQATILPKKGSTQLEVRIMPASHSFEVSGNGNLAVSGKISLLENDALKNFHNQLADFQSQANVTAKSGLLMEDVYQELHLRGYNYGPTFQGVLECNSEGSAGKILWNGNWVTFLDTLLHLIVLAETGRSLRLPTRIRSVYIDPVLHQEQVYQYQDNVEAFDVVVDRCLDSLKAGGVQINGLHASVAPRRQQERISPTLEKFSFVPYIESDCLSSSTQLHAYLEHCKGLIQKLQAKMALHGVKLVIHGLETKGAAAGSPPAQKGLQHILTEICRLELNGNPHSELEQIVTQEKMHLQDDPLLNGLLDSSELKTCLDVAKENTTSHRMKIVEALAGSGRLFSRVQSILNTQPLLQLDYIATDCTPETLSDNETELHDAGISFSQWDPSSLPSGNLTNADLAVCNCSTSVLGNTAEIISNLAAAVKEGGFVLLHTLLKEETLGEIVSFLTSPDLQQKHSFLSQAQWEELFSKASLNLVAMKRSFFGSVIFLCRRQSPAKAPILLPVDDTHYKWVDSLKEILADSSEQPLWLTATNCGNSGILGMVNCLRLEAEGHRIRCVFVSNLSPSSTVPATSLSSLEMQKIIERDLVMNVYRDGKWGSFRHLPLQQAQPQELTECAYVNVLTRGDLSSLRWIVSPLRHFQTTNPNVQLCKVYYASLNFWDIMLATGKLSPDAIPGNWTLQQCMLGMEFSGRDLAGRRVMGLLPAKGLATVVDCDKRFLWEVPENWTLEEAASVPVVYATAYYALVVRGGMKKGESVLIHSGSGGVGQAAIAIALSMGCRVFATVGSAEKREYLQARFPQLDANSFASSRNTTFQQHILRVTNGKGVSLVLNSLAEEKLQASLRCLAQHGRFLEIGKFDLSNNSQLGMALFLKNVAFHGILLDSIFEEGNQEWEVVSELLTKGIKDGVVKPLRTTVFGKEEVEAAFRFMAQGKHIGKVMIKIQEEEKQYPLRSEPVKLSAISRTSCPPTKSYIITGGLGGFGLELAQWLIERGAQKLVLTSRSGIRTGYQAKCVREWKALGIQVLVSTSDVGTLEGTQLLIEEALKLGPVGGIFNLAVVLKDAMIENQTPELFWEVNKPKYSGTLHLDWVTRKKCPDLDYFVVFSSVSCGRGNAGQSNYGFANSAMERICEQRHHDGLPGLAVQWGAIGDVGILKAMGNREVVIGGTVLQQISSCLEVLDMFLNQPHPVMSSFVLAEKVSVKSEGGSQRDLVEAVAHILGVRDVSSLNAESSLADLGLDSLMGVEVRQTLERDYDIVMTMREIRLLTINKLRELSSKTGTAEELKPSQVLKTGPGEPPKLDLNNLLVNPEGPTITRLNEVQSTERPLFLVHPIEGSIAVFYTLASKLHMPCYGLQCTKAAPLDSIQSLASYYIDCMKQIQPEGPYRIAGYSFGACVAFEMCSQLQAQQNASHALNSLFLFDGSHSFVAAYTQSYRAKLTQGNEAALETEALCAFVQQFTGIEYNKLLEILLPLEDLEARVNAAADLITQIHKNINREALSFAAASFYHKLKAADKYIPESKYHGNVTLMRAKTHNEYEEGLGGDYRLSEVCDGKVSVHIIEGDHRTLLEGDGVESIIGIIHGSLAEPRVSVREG

For `CC1=C(C(=O)Nc2ccccn2)C(c2ccc(Br)cc2)NC(S)=N1` (configuration not stated), the inhibition entry in experiment [1] was “inactive”. Also, the IC50 in experiment [2] is 8.4 µM.
For `CC1=NC2N=NNN2[C@@H](c2ccc(OCc3ccccc3)cc2)C1C(=O)Nc1ccccc1` (some centres not stated), the IC50 in experiment [3] was found to be 11.1 µM; in experiment [2], 19.3 µM. The inhibition entry in experiment [1] was “inactive”.
`COc1cc(OC)c([C@H]2NC(=S)NC(C)=C2C(=O)Nc2ccccc2Cl)cc1OC` displayed an IC50 in experiment [3] of 7.5 µM. Further, the inhibition entry in experiment [1] was “inactive”.
Taken in the same sequence, the figures for `CCn1c(SCC(=O)Nc2cc(Cl)ccc2Cl)nnc1C(C)(C)NC(=O)c1cccc(C)c1` were 14.7 µM and “inactive”.
For `CC1=C(C(=O)Nc2ccccc2)[C@@H](c2ccc(OCc3ccccc3)cc2)n2ncnc2N1` the same measures were 19.9 µM and “inactive”.
For `CC1=C(C(=O)Nc2ccc(Cl)cc2)C(c2cc(Br)ccc2O)NC(=S)N1` (configuration not stated) the same measures were 14.2 µM and “inactive”.
As to `O=[N+]([O-])c1cccc(-c2csc(N/N=C\c3ccccn3)n2)c1`, the results for the IC50 in experiment [4], in experiment [3] and in experiment [2] were 12.7 µM, 1.5 µM and 8.3 µM, respectively. In addition, in experiment [1], the inhibition result was “inactive”.

The values are drawn from ChEMBL document CHEMBL1806412, “Discovery of novel fatty acid synthase (FAS) inhibitors based on the structure of ketoaceyl synthase (KS) domain” (Bioorg Med Chem Lett, 2011).
